Experimental data taken from patent US6384225B1, “Intermediates in the preparation of substituted chroman derivatives” (AstraZeneca AB, priority 1997, dated 2002).

Row | melting point | SMILES
1 | 191 to 192 °C | Cc1ccc(C(=O)N[C@@H]2COc3c(C)ccc(N4CCN(C)CC4)c3C2)cc1 [Example 11, (S)-N-[8-Methyl-5-(4-methylpiperazin-1-yl)-3,4-dihydro-2H-1-benzopyran-3-yl]-4-methylbenzamide]
2 | 259 °C (dec.) | CN1CCN(c2ccc(C(N)=O)c3c2C[C@H](NC(=O)c2ccc(C(=O)c4ccccc4)cc2)CO3)CC1 [Example 14, (S)-N-[8-Carbamoyl-5-(4-methylpiperazin-1-yl)-3,4-dihydro-2H-1-benzopyran-3-yl]-4-benzoylbenzamide]
3 | 202 to 204 °C | COc1ccc(N2CCN(C)CC2)c2c1OCC(C(=O)Nc1ccc(N3CCOCC3)cc1)C2 (stereo not drawn) [Example 20, N-(4-Morpholinophenyl)-8-methoxy-5-(4-methylpiperazin-1-yl)-3,4-dihydro-2H-1-benzopyran-3-carboxamide]
